Assays:
[1] = Monitoring of the plasma concentration of 3 octasaccharides in beagle dogs after subcutaneous administration (plasma filtration + anion-exchange HPLC); assay type: in vivo, male dogs of the beagle breed; details: 0.5 mg/kg each
Description: (§1) A plasma sample with a volume of between 100 and 1000 μl is withdrawn and, if appropriate, the internal standard is added to the latter.
(§2) After homogenization, the resulting solution is introduced into a 30 kD Ultrafree 05 ultrafiltration cartridge (Millipore) rinsed beforehand with 250 μl of water by centrifuging at 10 000 rev/min for 5 minutes. The plasma is introduced into the upper part of the cartridge once or twice, if the amounts to be filtered are greater than 500 μl.
(§3) The cartridge is centrifuged at 10 000 rev/min for between 1 and 2 hours and then the filtrate is withdrawn. If appropriate, the second part of the plasma to be filtered is introduced into the upper part of the cartridge and the latter is again centrifuged. The exact amount of plasma introduced will have been weighed. The cartridge is centrifuged until the protein residue in the upper part of the cartridge represents no more than approximately 10% of the initial part.
(§4) The filtrate is withdrawn and 210 μl of 3M KCl per ml of plasma filtered are added to the concentrate.
(§5) After homogenization, the cartridge is centrifuged at 10 000 rev/min for between 1 and 4 hours. The cartridge is centrifuged until the protein residue in the upper part of the cartridge represents no more than approximately 10% of the initial part.
(§6) The second filtrate is withdrawn and 210 μl of 3M KCl per ml of plasma filtered are added a second time to the concentrate.
(§7) The third filtrate is withdrawn and 250 μl of water per ml of plasma filtered are added.
(§8) The filtrates are combined and diluted 5 fold in water, and the whole is injected directly in anion-exchange HPLC. Immediately before injection, the pH of the injected solution is adjusted to 3 by addition of 1N HCl.
(§9) The filtered plasma is analyzed by anion-exchange HPLC.
(§10) The columns used are IonPAc As11 columns (Dionex), with a length of 25 cm and an internal diameter of 2 mm. The detector used is a UV spectrophotometer equipped with an array of diodes.
(§11) The whole of the […] is injected after adjustment of the pH to 3 by addition of N HCl. The flow rate chosen is 0.22 ml/min; the column temperature is 40° C.
(§12) Elution is carried out in gradient mode. The two solutions used are:
(§13) Solvent A: NaH2PO4 2.5 mM, brought to pH 2.9 by addition of H3PO4
(§14) Solvent B: NaClO4 1N, NaH2PO4 2.5 mM, brought to pH 3.0 by addition of H3PO4
(§15) The elution gradient is as follows:
(§16) T=0 min: % B=3; T=40 min: % B=60; T=60 min: % B=80
The evolution of a mixture of three octasaccharides in the blood of male dogs of the beagle breed is monitored. These 3 octasaccharides, symbolized ΔIIaIIsIsIs, ΔIsIIaIIsIs and ΔIIaIIsIsIs^1,6-anhydro, are the main affinity octasaccharides of the octasaccharide fractions of Lovenox®.
The mixture is administered subcutaneously to 3 male dogs of the beagle breed at a target dose with regard to each of these 3 constituents of 0.5 mg/kg. The administration solution is a 0.9% NaCl solution of the mixture of the 3 octasaccharides at the target concentration of 0.5 mg/ml. Blood samples of 5 ml are withdrawn at the times 0, 0.25 h, 0.5 h, 1 h, 2 h, 4 h, 6 h, 8 h, 24 h, 30 h and 48 h after administration. The blood samples withdrawn are collected in tubes containing 400 μl of a CTAD (citrate, theophylline, adenosine, dipyridamole) mixture. After homogenization, the solution is centrifuged at 3000 g at 15° C. for 15 min. The plasma supernatant is recovered and stored at −20° C. until use.
For the treatment of the plasma before HPLC injection, approximately 1 ml of plasma is withdrawn and weighed, to which 50 μl of a solution of the internal standard at a concentration of approximately 0.02 g/l are added.
The internal standard is chosen so that it is structurally as close as possible to the products to be analyzed. Its structure is given below.
The tetrasaccharide used makes it possible to correct the potentional influence of the variations in the extraction yield.
The plasma is treated and analyzed by HPLC.

[2] = Monitoring of the plasma concentration of the main oligosaccharides of a VLMWH in human volunteers (plasma filtration + anion-exchange HPLC); assay type: in vivo
Description: as §1, §2, §3, §4, §5, §6, §7, §8, §9, §10, §11, §12, §13, §14, §15, §16
A VLMWH with an average molecular weight of 2500 Da is administered at the target dose of 1.4 mg/kg to human volunteers. Blood samples are withdrawn at the times 0, 0.25 h, 0.5 h, 0.75 h, 1 h, 1.25 h, 1.5 h, 2 h, 2.5 h, 3 h, 3.5 h, 4 h, 4.5 h, 5 h, 6 h, 7 h, 8 h, 9 h, 10 h, 12 h, 14 h and 24 h after administration.
As the VLMWH used is a complex mixture of oligosaccharides, the study was limited to certain components chosen from this mixture.

ATIII = ATIII (Homo sapiens, UniProt P01008); assay: Affinity for ATIII; assay type: binding
Sequence of ATIII (P01008 33-464, species assumed): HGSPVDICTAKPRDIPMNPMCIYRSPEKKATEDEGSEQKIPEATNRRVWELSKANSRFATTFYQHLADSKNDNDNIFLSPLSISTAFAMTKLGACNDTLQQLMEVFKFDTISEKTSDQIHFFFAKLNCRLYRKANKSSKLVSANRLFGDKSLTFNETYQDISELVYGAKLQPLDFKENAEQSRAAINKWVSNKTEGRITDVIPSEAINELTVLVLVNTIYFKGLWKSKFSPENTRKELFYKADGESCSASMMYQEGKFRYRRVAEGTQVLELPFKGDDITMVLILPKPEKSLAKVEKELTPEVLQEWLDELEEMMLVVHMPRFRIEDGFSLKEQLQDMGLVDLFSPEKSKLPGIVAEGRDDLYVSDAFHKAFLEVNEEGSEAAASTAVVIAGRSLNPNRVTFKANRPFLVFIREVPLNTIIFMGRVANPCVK

plasma concentration ([1]; Dog 1, 0 h after subcutaneous administration): 0 nM
plasma concentration ([1]; Dog 1, 0.25 h after subcutaneous administration): 40 nM
plasma concentration ([1]; Dog 1, 0.5 h after subcutaneous administration): 180 nM
plasma concentration ([1]; Dog 1, 1 h after subcutaneous administration): 330 nM
plasma concentration ([1]; Dog 1, 2 h after subcutaneous administration): 590 nM
plasma concentration ([1]; Dog 1, 4 h after subcutaneous administration): 470 nM
plasma concentration ([1]; Dog 1, 6 h after subcutaneous administration): 360 nM
plasma concentration ([1]; Dog 1, 8 h after subcutaneous administration): 280 nM
plasma concentration ([1]; Dog 1, 24 h after subcutaneous administration): 40 nM
plasma concentration ([1]; Dog 1, 30 h after subcutaneous administration): 20 nM
plasma concentration ([1]; Dog 1, 48 h after subcutaneous administration): 0 nM
plasma concentration ([1]; Dog 2, 0 h after subcutaneous administration): 0 nM
plasma concentration ([1]; Dog 2, 0.25 h after subcutaneous administration): 50 nM
plasma concentration ([1]; Dog 2, 0.5 h after subcutaneous administration): 100 nM
plasma concentration ([1]; Dog 2, 1 h after subcutaneous administration): 200 nM
plasma concentration ([1]; Dog 2, 2 h after subcutaneous administration): 320 nM
plasma concentration ([1]; Dog 2, 4 h after subcutaneous administration): 300 nM
plasma concentration ([1]; Dog 2, 6 h after subcutaneous administration): 370 nM
plasma concentration ([1]; Dog 2, 8 h after subcutaneous administration): 260 nM
plasma concentration ([1]; Dog 2, 24 h after subcutaneous administration): 40 nM
plasma concentration ([1]; Dog 2, 30 h after subcutaneous administration): 10 nM
plasma concentration ([1]; Dog 2, 48 h after subcutaneous administration): 0 nM
plasma concentration ([1]; Dog 3, 0 h after subcutaneous administration): 0 nM
plasma concentration ([1]; Dog 3, 0.25 h after subcutaneous administration): 60 nM
plasma concentration ([1]; Dog 3, 0.5 h after subcutaneous administration): 170 nM
plasma concentration ([1]; Dog 3, 1 h after subcutaneous administration): 240 nM
plasma concentration ([1]; Dog 3, 2 h after subcutaneous administration): 330 nM
plasma concentration ([1]; Dog 3, 4 h after subcutaneous administration): 450 nM
plasma concentration ([1]; Dog 3, 6 h after subcutaneous administration): 360 nM
plasma concentration ([1]; Dog 3, 8 h after subcutaneous administration): 290 nM
plasma concentration ([1]; Dog 3, 24 h after subcutaneous administration): 40 nM
plasma concentration ([1]; Dog 3, 30 h after subcutaneous administration): 20 nM
plasma concentration ([1]; Dog 3, 48 h after subcutaneous administration): 0 nM
plasma concentration ([2]; 0 h after administration of VLMWH (2500 Da) 1.4 mg/kg): 0 nM
plasma concentration ([2]; 0.25 h after administration of VLMWH (2500 Da) 1.4 mg/kg): 10 nM
plasma concentration ([2]; 0.5 h after administration of VLMWH (2500 Da) 1.4 mg/kg): 30 nM
plasma concentration ([2]; 0.75 h after administration of VLMWH (2500 Da) 1.4 mg/kg): 20 nM
plasma concentration ([2]; 1 h after administration of VLMWH (2500 Da) 1.4 mg/kg): 30 nM
plasma concentration ([2]; 1.25 h after administration of VLMWH (2500 Da) 1.4 mg/kg): 40 nM
plasma concentration ([2]; 1.5 h after administration of VLMWH (2500 Da) 1.4 mg/kg): 40 nM
plasma concentration ([2]; 2 h after administration of VLMWH (2500 Da) 1.4 mg/kg): 40 nM
plasma concentration ([2]; 2.5 h after administration of VLMWH (2500 Da) 1.4 mg/kg): 30 nM
plasma concentration ([2]; 3 h after administration of VLMWH (2500 Da) 1.4 mg/kg): 30 nM
plasma concentration ([2]; 3.5 h after administration of VLMWH (2500 Da) 1.4 mg/kg): 40 nM
plasma concentration ([2]; 4 h after administration of VLMWH (2500 Da) 1.4 mg/kg): 20 nM
plasma concentration ([2]; 4.5 h after administration of VLMWH (2500 Da) 1.4 mg/kg): 40 nM
plasma concentration ([2]; 5 h after administration of VLMWH (2500 Da) 1.4 mg/kg): 30 nM
plasma concentration ([2]; 6 h after administration of VLMWH (2500 Da) 1.4 mg/kg): 20 nM
plasma concentration ([2]; 7 h after administration of VLMWH (2500 Da) 1.4 mg/kg): 40 nM
plasma concentration ([2]; 8 h after administration of VLMWH (2500 Da) 1.4 mg/kg): 20 nM
plasma concentration ([2]; 9 h after administration of VLMWH (2500 Da) 1.4 mg/kg): 20 nM
plasma concentration ([2]; 10 h after administration of VLMWH (2500 Da) 1.4 mg/kg): 20 nM
plasma concentration ([2]; 12 h after administration of VLMWH (2500 Da) 1.4 mg/kg): 30 nM
plasma concentration ([2]; 14 h after administration of VLMWH (2500 Da) 1.4 mg/kg): 20 nM
plasma concentration ([2]; 24 h after administration of VLMWH (2500 Da) 1.4 mg/kg): 10 nM
affinity for ATIII (ATIII): high affinity for ATIII
SMILES: CC(=O)NC1C(OC2C(C(=O)O)OC(OC3C(COS(=O)(=O)O)OC(OC4C(C(=O)O)OC(OC5C(COS(=O)(=O)O)OC(OC6C(C(=O)O)OC(OC7C(COS(=O)(=O)O)OC(O)C(NS(=O)(=O)O)C7O)C(OS(=O)(=O)O)C6O)C(NS(=O)(=O)O)C5O)C(OS(=O)(=O)O)C4O)C(NS(=O)(=O)O)C3OS(=O)(=O)O)C(O)C2O)OC(COS(=O)(=O)O)C(OC2OC(C(=O)O)=CC(O)C2O)C1O (centres unmarked) [ΔIIaIIsIsIs]

Source: patent publication US7575930B2, “Method for analyzing oligosaccharides from blood plasma” (priority 2005, dated 2009)
